What was measured:
[1] = UHPLC-CAD-MS analysis of cleavage of DOG-Cleave during LNP formulation process; type: physicochemical; conditions: from extracted ion chromatograms, same response factor assumed
hEPO = hEPO expression in mouse serum after intramuscular injection of LNPs containing hEPO mRNA (ELISA); type: in vivo, Balb/c ByJ mice; conditions: 1 μg-dose of hEPO mRNA IM in quadriceps, serum 6 hours post-injection; LNPs lipid/DSPC/Chol/DMG-PEG2000 50:10:3.5:1.5, N/P 12
Experimental: LNPs comprising lipidic compound of formula (III) (or DOG-Cleave) or one of the compounds (VI), (XVII), (XIX), (XXI), (XXII), (XXIV), (XXVII) and (XXVIII), DSPC, Chol and DMG-PEG2000 at a molar ratio of 50:10:3.5:1.5, and hEPO mRNA at a N/P charge ratio=12 (unless otherwise specified in the table), were prepared as described in Example 30 by using the NanoassemblR. An Aqueous/Ethanolic phase volume ratio of 3/1 and at total flow rate of 4 mL/min was used. LNPs were prepared at a concentration of 60 μg of hEPO mRNA/mL in PBS 1×.
Four 8-week-old mice per group were injected on DO via intramuscular route in the quadriceps with 1 μg-dose of hEPO mRNA formulated in LNPs Lip. (IV)/DSPC under a final volume of 50 μL. As negative control, 4 mice received the same volume of PBS (for accelerated stability study and lipid screening) or Citrate Buffer (lipid screening)
Blood samples were collected 6 hours post-injection to measure the expression of hEPO in serum using a specific ELISA assay.
Blood samples were collected 6 hours post-injection by carotid section under deep anesthesia with Imalgene/Rompun (1.6 mg of Ketamine/0.32 mg of Xylazine) in serum-separation tubes (BD Vacutainer #BD367957). Sera were aliquoted and stored at −20° C. until hEPO determination.
hEPO expression in mouse sera was assessed using human Erythropoietin Quantikine IVD ELISA kit (R&D Systems #DEP00). The ELISA was performed following supplier's instructions. Briefly, sera were added in pre-coated plates and incubated for one hour at room temperature under orbital shaking. After sera removal, Erythropoietin conjugate was added for one hour at room temperature under orbital shaking. Plates were washed and Substrate solution was added for 20-25 minutes at room temperature before stopping the reaction with Stop solution. Absorbance at 450 nm with 650 nm signal subtraction was determined in a microplate reader. Data were analyzed using SoftmaxPro software and expressed in log 10 of the concentration of hEPO measured in mouse sera in pg/mL.

Compound	EPO secretion IM (hEPO) [Log10 pg/ml]	further results
CCCCCCCC/C=C\CCCCCCCCOCC(COCCOCCOCCOCCOC(=O)CNCCOC(=O)CNCCOC)OCCCCCCCC/C=C\CCCCCCCC.O=C(O)C(F)(F)F.O=C(O)C(F)(F)F (centres unmarked) [Compound (III), 2-[[2-[2-[2-[2-[2-[2,3-bis[(Z)-octadec-9-enoxy]propoxy]ethoxy]ethoxy]ethoxy]ethoxy]-2-oxo-ethyl]amino]ethyl 2-(2-methoxyethylamino)acetate;2,2,2-trifluoroacetic Acid]	1.5	Relative amount in DOG-Cleave EtOH solution [1]: 75%; Relative amount in Final LNP [1]: 25%; Relative amount in LNP after 1st dialysis [1]: 59%
CCCCCCCC/C=C\CCCCCCCCOCC(COCCOCCOCCOCCOC(=O)CNCCOC(=O)[C@@H](N)COC)OCCCCCCCC/C=C\CCCCCCCC.Cl (stereo partly drawn) [Compound (VI), 2-[[2-[2-[2-[2-[2-[2,3-bis[(Z)-octadec-9-enoxy]propoxy]ethoxy]ethoxy]ethoxy]ethoxy]-2-oxoethyl]amino]ethyl (2S)-2-amino-3-methoxy-propanoate; Hydrochloride]	2.1	–
CCCCCCCCC=CCCCCCCCCOCC(OCCCCCCCCC=CCCCCCCCC)C(=O)N(CCCCCCCC)CCOCCOCCOCCOCCOC(=O)CNCCOC(=O)CNCCOC.O=C(O)C(F)(F)F (centres unmarked) [Compound (XIX), 2-[[2-[2-[2-[2-[2-[2-[2,3-bis[(Z)-octadec-9-enoxy]propanoyl-octylamino]ethoxy]ethoxy]ethoxy]ethoxy]ethoxy]-2-oxo-ethyl]amino]ethyl 2-(2-methoxyethylamino)acetate;2,2,2-trifluoroacetic Acid]	2.4	–
CCCCCCC(CCCC)C(=O)OCCCCCCOCC(COCCOCCOCCOCCOC(=O)CNCCOC(=O)CNCCOC)OCCCCCCOC(=O)C(CCCC)CCCCCC (centres unmarked) [Compound (XXII), 6-[2-[6-(2-butyloctanoyloxy)hexoxy]-3-[2-[2-[2-[2-[2-[2-[2-(2-methoxyethylamino)acetyl]oxyethylamino]acetyl]oxyethoxy]ethoxy]ethoxy]ethoxy]propoxy]hexyl 2-butyloctanoate;2,2,2-trifluoroacetic Acid]	2.5	–
CCCCCCCCC=CCCCCCCCCOCC(OCCCCCCCCC=CCCCCCCCC)C(CCCCCCCCCCCC)OC(=O)NCCOCCOCCOCCOC(=O)CNCCOC(=O)CNCCOC.O=C(O)C(F)(F)F (centres unmarked) [Compound (XXIV), 2-[[2-[2-[2-[2-[2-[1-[1,2-bis[(Z)-octadec-9-enoxy]ethyl]tridecoxycarbonylamino]ethoxy]ethoxy]ethoxy]ethoxy]-2-oxo-ethyl]amino]ethyl 2-(2-methoxyethylamino)acetate;2,2,2-trifluoroacetic Acid]	1.9	–
CCCCCCCCCOC(=O)CCCCCCCN(CCCCCCCC(=O)OC(CCCCCCCC)CCCCCCCC)C(=O)CCOCCOCCOCCOC(=O)CNCCOC(=O)CNCCOC [Compound (XXVII), nonyl 8-[3-[2-[2-[2-[2-[2-[2-(2-methoxyethylamino)acetyl]oxyethylamino]acetyl]oxyethoxy]ethoxy]ethoxy]propanoyl-[8-(1-octylnonoxy)-8-oxo-octyl]amino]octanoate;2,2,2-trifluoroacetic Acid]	1.9	–
CCCCCCCCC(CCCCCC)C(=O)OCCCCCCOCC(OCCCCCCOC(=O)C(CCCCCC)CCCCCCCC)C(=O)N(CCCCCCCC)CCOCCOCCOCCOCCOC(=O)CNCCOC(=O)CNCCOC (centres unmarked) [Compound (XXVIII), 6-[2-[6-(2-hexyldecanoyloxy)hexoxy]-3-[2-[2-[2-[2-[2-[2-[2-[2-(2-methoxyethylamino)acetyl]oxyethylamino]acetyl]oxyethoxy]ethoxy]ethoxy]ethoxy]ethyl-octyl-amino]-3-oxopropoxy]hexyl 2-hexyldecanoate;2,2,2-trifluoroacetic acid]	2.3	–
[(Z)-non-2-enyl] 8-[3-[2-[2-[2-[2-[2-[2-[2-(2-methoxyethylamino)acetyl]oxyethylamino]acetyl]oxyethoxy]ethoxy]ethoxy]ethoxy]-2-[8-[(Z)-non-2-enoxy]-8-oxo-octoxy]propoxy]octanoate;2,2,2-trifluoroacetic Acid [Compound (XVII)]	2.4	–
